Measurements taken from ChEMBL document CHEMBL3991601, “The target landscape of clinical kinase drugs” (Science, 2017).
The source made the active and inactive calls. Cut-off read from the data, not from the text of the source, for most assays here: actives have a measured Kd and inactives only a lower limit.

Assays:
[1] = molecular target: Serine/threonine-protein kinase N1 (Homo sapiens, UniProt Q16512)
[2] = molecular target: Mitogen-activated protein kinase kinase kinase 1 (Homo sapiens, UniProt Q13233)
[3] = molecular target: T1, Dynamin-like GTPase OPA1, mitochondrial (Homo sapiens, UniProt O60313)
T1 sequence (O60313 whole entry): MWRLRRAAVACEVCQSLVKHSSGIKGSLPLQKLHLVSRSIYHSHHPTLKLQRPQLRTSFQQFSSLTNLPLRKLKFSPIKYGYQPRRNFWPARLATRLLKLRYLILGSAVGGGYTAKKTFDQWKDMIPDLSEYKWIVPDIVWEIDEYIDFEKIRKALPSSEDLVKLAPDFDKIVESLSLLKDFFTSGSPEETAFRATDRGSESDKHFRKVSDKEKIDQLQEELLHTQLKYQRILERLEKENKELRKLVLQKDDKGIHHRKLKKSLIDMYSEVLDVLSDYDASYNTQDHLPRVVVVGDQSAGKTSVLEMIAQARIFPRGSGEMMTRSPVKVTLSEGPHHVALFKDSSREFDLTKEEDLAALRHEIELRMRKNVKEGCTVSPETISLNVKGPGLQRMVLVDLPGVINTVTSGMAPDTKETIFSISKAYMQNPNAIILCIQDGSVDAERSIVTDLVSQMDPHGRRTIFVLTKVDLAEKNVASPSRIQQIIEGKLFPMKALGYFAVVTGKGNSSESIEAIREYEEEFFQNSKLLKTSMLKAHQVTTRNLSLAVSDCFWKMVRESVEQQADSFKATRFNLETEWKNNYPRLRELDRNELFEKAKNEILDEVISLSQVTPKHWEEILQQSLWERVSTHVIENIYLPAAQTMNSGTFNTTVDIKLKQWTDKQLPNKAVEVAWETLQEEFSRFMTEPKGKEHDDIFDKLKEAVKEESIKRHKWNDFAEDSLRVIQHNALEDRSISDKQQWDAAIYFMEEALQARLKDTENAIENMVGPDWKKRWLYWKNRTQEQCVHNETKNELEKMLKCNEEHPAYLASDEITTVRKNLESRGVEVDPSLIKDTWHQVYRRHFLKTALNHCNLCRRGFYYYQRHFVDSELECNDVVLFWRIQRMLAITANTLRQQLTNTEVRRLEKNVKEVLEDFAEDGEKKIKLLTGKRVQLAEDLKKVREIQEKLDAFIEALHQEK

[4] = molecular target: STE20-like serine/threonine-protein kinase (Homo sapiens, UniProt Q9H2G2)
[5] = molecular target: Serine/threonine-protein kinase SIK2 (Homo sapiens, UniProt Q9H0K1)
[6] = molecular target: T2, Dual specificity mitogen-activated protein kinase kinase 6 (Homo sapiens, UniProt P52564)
T2 sequence (P52564 whole entry): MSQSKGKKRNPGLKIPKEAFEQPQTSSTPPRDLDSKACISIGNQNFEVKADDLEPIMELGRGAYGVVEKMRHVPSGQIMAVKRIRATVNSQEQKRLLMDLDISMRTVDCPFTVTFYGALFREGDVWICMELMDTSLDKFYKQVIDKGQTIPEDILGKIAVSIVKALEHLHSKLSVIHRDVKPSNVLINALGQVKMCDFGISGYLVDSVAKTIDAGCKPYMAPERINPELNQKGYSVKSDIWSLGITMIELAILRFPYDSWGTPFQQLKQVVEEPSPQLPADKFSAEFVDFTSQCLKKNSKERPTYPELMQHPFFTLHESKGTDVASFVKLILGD

[7] = molecular target: Cyclin-dependent kinase 1 (Homo sapiens, UniProt P06493)
Ephrin type-B receptor 2 = molecular target: T3, Ephrin type-B receptor 2 (Homo sapiens, UniProt P29323)
T3 sequence (P29323 whole entry): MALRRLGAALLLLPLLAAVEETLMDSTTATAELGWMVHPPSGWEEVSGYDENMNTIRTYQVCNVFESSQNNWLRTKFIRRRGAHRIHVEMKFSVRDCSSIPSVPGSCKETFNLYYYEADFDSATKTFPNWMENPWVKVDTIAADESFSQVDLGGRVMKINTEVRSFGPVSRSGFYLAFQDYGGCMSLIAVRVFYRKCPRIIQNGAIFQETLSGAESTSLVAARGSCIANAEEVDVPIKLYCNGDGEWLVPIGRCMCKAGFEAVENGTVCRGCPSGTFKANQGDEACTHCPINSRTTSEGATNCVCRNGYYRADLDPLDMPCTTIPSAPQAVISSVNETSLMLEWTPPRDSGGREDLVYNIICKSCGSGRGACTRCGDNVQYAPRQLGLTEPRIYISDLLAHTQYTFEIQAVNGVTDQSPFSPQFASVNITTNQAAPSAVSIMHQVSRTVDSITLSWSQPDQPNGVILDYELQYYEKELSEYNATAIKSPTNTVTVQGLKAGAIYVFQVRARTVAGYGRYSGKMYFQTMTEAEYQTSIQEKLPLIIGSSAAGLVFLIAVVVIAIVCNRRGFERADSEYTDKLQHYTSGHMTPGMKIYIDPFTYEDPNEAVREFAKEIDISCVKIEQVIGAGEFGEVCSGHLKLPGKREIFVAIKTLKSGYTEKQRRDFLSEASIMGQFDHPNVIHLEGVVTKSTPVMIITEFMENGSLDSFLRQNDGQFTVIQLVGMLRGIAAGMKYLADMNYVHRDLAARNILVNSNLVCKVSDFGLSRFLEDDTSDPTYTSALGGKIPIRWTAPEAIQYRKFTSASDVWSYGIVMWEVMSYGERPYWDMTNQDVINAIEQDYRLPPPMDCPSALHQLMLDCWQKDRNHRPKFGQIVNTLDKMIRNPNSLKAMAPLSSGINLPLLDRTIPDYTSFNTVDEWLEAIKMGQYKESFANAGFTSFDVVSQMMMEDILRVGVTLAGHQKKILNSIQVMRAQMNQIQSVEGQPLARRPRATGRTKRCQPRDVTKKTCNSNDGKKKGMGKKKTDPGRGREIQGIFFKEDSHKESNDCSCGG

[8] = molecular target: MAP kinase-activated protein kinase 2 (Homo sapiens, UniProt P49137)
[9] = molecular target: Maternal embryonic leucine zipper kinase (Homo sapiens, UniProt Q14680)
Note: in the data inactive means no Kd found up to 30 µM.

Mitogen-activated protein kinase kinase kinase 1, sequence (Q13233 whole entry): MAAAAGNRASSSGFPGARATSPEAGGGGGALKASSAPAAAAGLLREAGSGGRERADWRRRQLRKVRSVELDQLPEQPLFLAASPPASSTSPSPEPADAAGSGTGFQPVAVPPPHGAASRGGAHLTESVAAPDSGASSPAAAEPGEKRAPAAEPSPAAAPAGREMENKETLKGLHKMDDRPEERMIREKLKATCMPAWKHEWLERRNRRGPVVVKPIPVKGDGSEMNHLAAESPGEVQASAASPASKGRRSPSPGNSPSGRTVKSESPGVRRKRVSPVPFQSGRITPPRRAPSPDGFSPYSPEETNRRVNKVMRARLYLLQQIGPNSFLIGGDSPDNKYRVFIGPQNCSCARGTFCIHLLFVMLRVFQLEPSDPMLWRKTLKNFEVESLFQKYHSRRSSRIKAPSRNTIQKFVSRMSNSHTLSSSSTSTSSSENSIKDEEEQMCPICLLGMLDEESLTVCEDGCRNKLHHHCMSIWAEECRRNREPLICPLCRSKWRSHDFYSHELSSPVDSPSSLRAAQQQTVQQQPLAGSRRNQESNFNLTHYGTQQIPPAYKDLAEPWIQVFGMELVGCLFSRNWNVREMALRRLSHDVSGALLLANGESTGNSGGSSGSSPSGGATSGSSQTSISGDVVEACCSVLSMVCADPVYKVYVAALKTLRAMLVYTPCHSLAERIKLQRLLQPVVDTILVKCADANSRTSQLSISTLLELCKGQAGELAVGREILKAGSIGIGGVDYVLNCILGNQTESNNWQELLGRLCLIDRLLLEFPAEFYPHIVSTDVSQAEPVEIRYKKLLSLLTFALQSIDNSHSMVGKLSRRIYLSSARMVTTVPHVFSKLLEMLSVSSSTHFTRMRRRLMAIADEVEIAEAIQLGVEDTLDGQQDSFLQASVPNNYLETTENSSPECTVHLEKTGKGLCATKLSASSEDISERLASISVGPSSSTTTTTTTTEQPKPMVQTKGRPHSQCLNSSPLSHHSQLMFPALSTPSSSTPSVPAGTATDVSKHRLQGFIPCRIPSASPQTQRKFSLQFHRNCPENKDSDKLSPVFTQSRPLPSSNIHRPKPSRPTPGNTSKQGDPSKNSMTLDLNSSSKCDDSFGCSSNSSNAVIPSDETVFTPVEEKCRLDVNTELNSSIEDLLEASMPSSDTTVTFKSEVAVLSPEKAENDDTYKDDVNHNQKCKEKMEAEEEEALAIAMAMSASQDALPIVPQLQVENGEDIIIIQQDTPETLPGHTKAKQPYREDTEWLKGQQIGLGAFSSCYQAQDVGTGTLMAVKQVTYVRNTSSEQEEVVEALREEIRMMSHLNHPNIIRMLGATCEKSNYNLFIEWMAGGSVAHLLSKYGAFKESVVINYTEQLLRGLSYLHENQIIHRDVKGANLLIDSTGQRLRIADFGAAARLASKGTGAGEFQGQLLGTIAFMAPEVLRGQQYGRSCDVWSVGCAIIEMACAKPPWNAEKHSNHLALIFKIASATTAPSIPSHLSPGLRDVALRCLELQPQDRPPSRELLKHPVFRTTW
Serine/threonine-protein kinase N1, sequence (Q16512 whole entry): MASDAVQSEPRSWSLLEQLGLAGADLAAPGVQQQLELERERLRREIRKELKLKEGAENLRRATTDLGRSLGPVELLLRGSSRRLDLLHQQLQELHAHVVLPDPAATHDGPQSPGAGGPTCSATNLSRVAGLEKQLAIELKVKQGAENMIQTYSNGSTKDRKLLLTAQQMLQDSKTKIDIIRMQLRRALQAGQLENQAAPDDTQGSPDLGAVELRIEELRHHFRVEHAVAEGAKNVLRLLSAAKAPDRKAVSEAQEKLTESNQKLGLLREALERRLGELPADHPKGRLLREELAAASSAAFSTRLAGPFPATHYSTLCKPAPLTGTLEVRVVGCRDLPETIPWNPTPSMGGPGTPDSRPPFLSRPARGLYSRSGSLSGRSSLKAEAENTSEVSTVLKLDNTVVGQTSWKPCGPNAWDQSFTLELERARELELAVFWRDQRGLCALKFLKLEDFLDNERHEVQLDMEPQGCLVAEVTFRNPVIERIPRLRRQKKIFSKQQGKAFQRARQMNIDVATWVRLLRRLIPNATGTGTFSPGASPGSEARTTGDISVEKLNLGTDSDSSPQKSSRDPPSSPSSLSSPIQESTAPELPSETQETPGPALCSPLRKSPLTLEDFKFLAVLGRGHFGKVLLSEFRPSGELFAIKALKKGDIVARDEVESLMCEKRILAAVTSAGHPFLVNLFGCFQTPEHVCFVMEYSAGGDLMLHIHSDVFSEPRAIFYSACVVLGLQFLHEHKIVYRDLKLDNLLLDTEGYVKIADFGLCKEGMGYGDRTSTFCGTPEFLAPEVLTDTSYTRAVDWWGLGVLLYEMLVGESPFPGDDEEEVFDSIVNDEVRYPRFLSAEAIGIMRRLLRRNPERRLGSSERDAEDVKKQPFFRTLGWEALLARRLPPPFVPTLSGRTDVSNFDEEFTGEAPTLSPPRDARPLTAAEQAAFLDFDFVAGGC
MAP kinase-activated protein kinase 2, sequence (P49137 whole entry): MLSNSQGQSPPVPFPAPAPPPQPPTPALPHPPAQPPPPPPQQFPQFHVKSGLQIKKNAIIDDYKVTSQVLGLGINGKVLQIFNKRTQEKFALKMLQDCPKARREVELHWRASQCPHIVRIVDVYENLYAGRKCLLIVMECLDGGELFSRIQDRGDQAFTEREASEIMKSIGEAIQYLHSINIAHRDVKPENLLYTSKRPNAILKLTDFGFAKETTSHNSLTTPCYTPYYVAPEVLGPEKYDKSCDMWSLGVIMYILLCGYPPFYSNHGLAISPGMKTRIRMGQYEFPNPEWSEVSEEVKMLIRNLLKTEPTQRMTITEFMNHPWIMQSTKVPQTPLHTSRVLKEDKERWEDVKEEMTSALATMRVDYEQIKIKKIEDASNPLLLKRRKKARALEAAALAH
Cyclin-dependent kinase 1, sequence (P06493 whole entry): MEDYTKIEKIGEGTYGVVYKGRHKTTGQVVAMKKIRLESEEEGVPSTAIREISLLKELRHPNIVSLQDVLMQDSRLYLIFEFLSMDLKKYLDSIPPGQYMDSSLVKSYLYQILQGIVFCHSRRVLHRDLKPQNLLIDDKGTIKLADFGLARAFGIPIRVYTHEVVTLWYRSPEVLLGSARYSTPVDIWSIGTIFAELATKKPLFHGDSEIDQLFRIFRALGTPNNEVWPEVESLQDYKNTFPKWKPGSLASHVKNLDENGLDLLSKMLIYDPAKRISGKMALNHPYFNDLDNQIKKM
Serine/threonine-protein kinase SIK2, sequence (Q9H0K1 whole entry): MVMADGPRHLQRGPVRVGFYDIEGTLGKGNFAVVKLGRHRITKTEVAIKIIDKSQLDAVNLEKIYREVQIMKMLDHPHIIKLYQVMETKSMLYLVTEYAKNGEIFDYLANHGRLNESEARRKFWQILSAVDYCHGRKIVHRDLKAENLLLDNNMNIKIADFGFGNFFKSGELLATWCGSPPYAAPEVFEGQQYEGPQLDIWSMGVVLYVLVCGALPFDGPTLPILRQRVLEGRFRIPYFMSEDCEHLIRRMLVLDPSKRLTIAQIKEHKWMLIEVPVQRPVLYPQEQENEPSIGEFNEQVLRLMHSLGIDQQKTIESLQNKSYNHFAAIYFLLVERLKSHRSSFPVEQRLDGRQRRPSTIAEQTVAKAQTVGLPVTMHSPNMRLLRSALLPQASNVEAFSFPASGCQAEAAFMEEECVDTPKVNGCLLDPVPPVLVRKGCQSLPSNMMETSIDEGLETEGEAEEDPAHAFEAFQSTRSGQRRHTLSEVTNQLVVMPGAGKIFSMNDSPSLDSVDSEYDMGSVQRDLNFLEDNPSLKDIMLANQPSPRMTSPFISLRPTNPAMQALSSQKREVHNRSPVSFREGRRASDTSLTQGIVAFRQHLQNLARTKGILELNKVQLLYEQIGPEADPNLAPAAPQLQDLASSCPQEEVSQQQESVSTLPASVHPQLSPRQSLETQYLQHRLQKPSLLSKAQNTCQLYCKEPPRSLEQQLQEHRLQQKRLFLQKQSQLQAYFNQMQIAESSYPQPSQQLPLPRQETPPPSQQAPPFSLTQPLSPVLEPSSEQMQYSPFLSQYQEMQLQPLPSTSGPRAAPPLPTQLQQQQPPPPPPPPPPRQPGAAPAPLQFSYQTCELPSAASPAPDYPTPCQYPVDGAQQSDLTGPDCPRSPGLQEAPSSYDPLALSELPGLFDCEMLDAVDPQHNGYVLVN
Maternal embryonic leucine zipper kinase, sequence (Q14680 whole entry): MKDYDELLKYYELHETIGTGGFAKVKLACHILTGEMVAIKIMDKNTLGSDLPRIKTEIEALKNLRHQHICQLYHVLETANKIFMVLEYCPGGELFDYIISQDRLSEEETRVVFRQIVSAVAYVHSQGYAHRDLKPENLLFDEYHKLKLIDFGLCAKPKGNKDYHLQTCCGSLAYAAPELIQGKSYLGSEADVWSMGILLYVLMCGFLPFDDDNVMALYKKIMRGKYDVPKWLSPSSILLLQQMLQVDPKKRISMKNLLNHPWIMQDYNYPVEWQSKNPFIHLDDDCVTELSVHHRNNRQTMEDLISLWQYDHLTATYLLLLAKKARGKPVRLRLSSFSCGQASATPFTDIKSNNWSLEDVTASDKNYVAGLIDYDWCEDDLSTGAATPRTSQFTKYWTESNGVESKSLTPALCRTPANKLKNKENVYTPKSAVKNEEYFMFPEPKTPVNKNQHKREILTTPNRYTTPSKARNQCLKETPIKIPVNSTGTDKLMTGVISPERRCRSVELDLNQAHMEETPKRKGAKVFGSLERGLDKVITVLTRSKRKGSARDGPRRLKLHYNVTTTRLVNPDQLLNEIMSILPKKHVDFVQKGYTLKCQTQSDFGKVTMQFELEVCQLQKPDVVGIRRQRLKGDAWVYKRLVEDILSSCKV

Compound	Kd [1]	Kd [2]	Kd [3]	Kd [4]	Kd [5]	Kd [6]	Kd [7]	Kd (Ephrin type-B receptor 2)	Kd [8]	Kd [9]
CC(=O)c1cnc2ccc(-c3cc(Cl)c(O)c(Cl)c3)nc2c1N[C@H]1CC[C@H](CN(C)C)CC1	0.244 µM (active)	> 30 µM (inactive)	> 30 µM (inactive)	0.113 µM (active)	0.24 µM (active)	4.56 µM (active)	0.288 µM (active)	0.149 µM (active)	–	–
COCc1c(-c2ccc(NC(=O)Nc3cc(C(F)(F)F)ccc3F)c(F)c2)c2c(N)ncnn2c1CN1CCOCC1	> 30 µM (inactive)	> 30 µM (inactive)	> 30 µM (inactive)	> 30 µM (inactive)	> 30 µM (inactive)	> 30 µM (inactive)	> 30 µM (inactive)	> 30 µM (inactive)	> 30 µM (inactive)	> 30 µM (inactive)
COc1cc(Nc2ncc3c(n2)-c2ccc(Cl)cc2C(c2c(F)cccc2OC)=NC3)ccc1C(=O)O [ALISERTIB]	> 30 µM (inactive)	> 30 µM (inactive)	> 30 µM (inactive)	–	> 30 µM (inactive)	> 30 µM (inactive)	–	> 30 µM (inactive)	–	–
O=C(Nc1c[nH]nc1-c1nc2cc(CN3CCOCC3)ccc2[nH]1)NC1CC1 [AT-9283]	–	–	> 30 µM (inactive)	0.402 µM (active)	0.03 µM (active)	3.54 µM (active)	> 30 µM (inactive)	> 30 µM (inactive)	> 30 µM (inactive)	–
CNC(=O)c1ccccc1Sc1ccc2c(/C=C/c3ccccn3)n[nH]c2c1 [AXITINIB]	–	–	> 30 µM (inactive)	–	–	–	> 30 µM (inactive)	–	–	–
CC(C)(C)c1nc(-c2cccc(NS(=O)(=O)c3c(F)cccc3F)c2F)c(-c2ccnc(N)n2)s1 [DABRAFENIB]	> 30 µM (inactive)	> 30 µM (inactive)	> 30 µM (inactive)	> 30 µM (inactive)	0.649 µM (active)	> 30 µM (inactive)	0.364 µM (active)	> 30 µM (inactive)	–	1.82 µM (active)
Cn1cc(C2=C(c3cn(C4CCN(Cc5ccccn5)CC4)c4ccccc34)C(=O)NC2=O)c2ccccc21 [ENZASTAURIN]	–	–	> 30 µM (inactive)	–	–	–	> 30 µM (inactive)	–	–	–
O=C(Nc1cc(C(F)(F)F)cc(C(F)(F)F)c1)c1cc(Cl)ccc1O [IMD-0354]	> 30 µM (inactive)	> 30 µM (inactive)	> 30 µM (inactive)	> 30 µM (inactive)	> 30 µM (inactive)	> 30 µM (inactive)	–	> 30 µM (inactive)	> 30 µM (inactive)	> 30 µM (inactive)
CNC(=O)c1nn(C)c2c1C(C)(C)Cc1cnc(Nc3ccc(N4CCN(C)CC4)cc3)nc1-2 [MILCICLIB]	> 30 µM (inactive)	> 30 µM (inactive)	> 30 µM (inactive)	> 30 µM (inactive)	0.11 µM (active)	> 30 µM (inactive)	> 30 µM (inactive)	0.767 µM (active)	> 30 µM (inactive)	–
Cc1[nH]c(/C=C2\C(=O)Nc3ccccc32)c(C)c1CCC(=O)O [ORANTINIB]	> 30 µM (inactive)	> 30 µM (inactive)	> 30 µM (inactive)	–	> 30 µM (inactive)	> 30 µM (inactive)	–	> 30 µM (inactive)	–	–
CCOc1cc2ncc(C#N)c(Nc3ccc(F)c(Cl)c3)c2cc1NC(=O)/C=C/CN(C)C [PELITINIB]	> 30 µM (inactive)	0.097 µM (active)	> 30 µM (inactive)	> 30 µM (inactive)	–	> 30 µM (inactive)	> 30 µM (inactive)	> 30 µM (inactive)	> 30 µM (inactive)	> 30 µM (inactive)
N#CC[C@H](C1CCCC1)n1cc(-c2ncnc3[nH]ccc23)cn1 [RUXOLITINIB]	–	–	> 30 µM (inactive)	–	–	–	> 30 µM (inactive)	–	–	–
CN1CCN(CCOc2cc(OC3CCOCC3)c3c(Nc4c(Cl)ccc5c4OCO5)ncnc3c2)CC1 [SARACATINIB]	> 30 µM (inactive)	> 30 µM (inactive)	> 30 µM (inactive)	–	1.41 µM (active)	> 30 µM (inactive)	> 30 µM (inactive)	9.42 µM (active)	> 30 µM (inactive)	> 30 µM (inactive)

Continued, in another order:

Kd [1]	Kd [2]	Kd [3]	Kd [4]	Kd [5]	Kd [6]	Kd [7]	Kd (Ephrin type-B receptor 2)	Kd [8]	Compound	Kd [9]
–	–	> 30 µM (inactive)	–	–	–	> 30 µM (inactive)	–	–	C[C@@H](Oc1cc(-n2cnc3ccc(CN4CCN(C)CC4)cc32)sc1C(N)=O)c1ccccc1C(F)(F)F [GSK-461364]	–
> 30 µM (inactive)	> 30 µM (inactive)	> 30 µM (inactive)	> 30 µM (inactive)	0.685 µM (active)	> 30 µM (inactive)	> 30 µM (inactive)	> 30 µM (inactive)	–	CCn1cc(-c2ccnc3[nH]c(-c4cccc(CN(C)C)c4)cc23)c(-c2ccc(NC(=O)N(C)C)cc2)n1 [GSK-1070916]	> 30 µM (inactive)
–	0.135 µM (active)	> 30 µM (inactive)	–	0.904 µM (active)	> 30 µM (inactive)	–	> 30 µM (inactive)	–	NC(=O)c1c(OCc2c(F)cc(Br)cc2F)nsc1NC(=O)NCCCCN1CCCC1 [OSI-632]	–
–	> 30 µM (inactive)	> 30 µM (inactive)	> 30 µM (inactive)	1.27 µM (active)	> 30 µM (inactive)	> 30 µM (inactive)	> 30 µM (inactive)	> 30 µM (inactive)	Cc1nc(Nc2n[nH]c3c2CN(C(=O)N[C@H](CN(C)C)c2ccccc2)C3(C)C)c2sccc2n1 [PF-03758309]	0.057 µM (active)
2.94 µM (active)	2.18 µM	> 30 µM (inactive)	–	0.011 µM (active)	> 30 µM (inactive)	–	> 30 µM (inactive)	–	CC(=O)NCC(=O)N1[C@@H]2CC[C@H]1c1ccc(Nc3ncc(C(F)(F)F)c(NC4CCC4)n3)cc12 [PF-03814735]	–
–	–	> 30 µM (inactive)	–	–	–	> 30 µM (inactive)	–	–	O=C(NOCCO)c1cc(CN2OCCCC2=O)c(F)c(F)c1Nc1ccc(I)cc1F [RO-4987655]	–
2.98 µM (active)	> 30 µM (inactive)	> 30 µM (inactive)	1.35 µM (active)	0.115 µM (active)	> 30 µM (inactive)	> 30 µM (inactive)	0.669 µM (active)	> 30 µM (inactive)	CCS(=O)(=O)c1cccc(-c2cc(C(=O)NC3CCN(C)CC3)c(C)c3[nH]c4ncc(C)cc4c23)c1 [TAK-901]	–
